Experimental data published in US4740601A, “Imidazole derivatives having antimicrobial activities” (SS Pharmaceutical Co., Ltd., priority 1985, dated 1988).
Like-named read-outs stand apart in the source and are kept apart here.

Columns and labels:
Format in all cases: cell-based
[1] = test system: Cladosporium fulvum IAM 5006; test: antimicrobial activity, MIC
[2] = test system: Staphylococcus epidermidis ATCC 12228; test: antimicrobial activity, MIC
[3] = test system: Candida albicans NHL 4019; test: antimicrobial activity, MIC
[4] = test system: Micrococcus lysodeixticus IFO 3333; test: antimicrobial activity, MIC
[5] = test system: Epidermophyton floccosum IFO 9045; test: antimicrobial activity, MIC
Sarcina lutea ATCC 9341 = test: antimicrobial activity, MIC
[6] = test system: Trichophyton mentagrophytes QM 248; test: antimicrobial activity, MIC
[7] = test system: Aspergillus niger ATCC 9642; test: antimicrobial activity, MIC
[8] = test system: Trichophyton rubrum NHL J; test: antimicrobial activity, MIC
[9] = test system: Gibberella fujikuroi IAM 8046; test: antimicrobial activity, MIC
Saccharomyces ruxii 6507 = test: antimicrobial activity, MIC
[10] = test system: Streptococcus faecalis IFO 12964; test: antimicrobial activity, MIC
[11] = test system: Staphylococcus aureus Smith; test: antimicrobial activity, MIC
[12] = test system: Trichophyton mentagrophytes IFO 5812; test: antimicrobial activity, MIC
[13] = test system: Penicillium chrysogenum ATCC 6010; test: antimicrobial activity, MIC
[14] = test system: Saccharomyces cerevisiae ATCC 9763; test: antimicrobial activity, MIC
[15] = test system: Helminthosporium sesamum IAM 5012; test: antimicrobial activity, MIC
[16] = test system: Fusarium moniliforme IAM 5062; test: antimicrobial activity, MIC
[17] = test system: Microsporum cookei IFO 8303; test: antimicrobial activity, MIC
[18] = test system: Trichophyton tonsurans IFO 5928; test: antimicrobial activity, MIC
[19] = test system: Microsporum gypseum IFO 8231; test: antimicrobial activity, MIC
[20] = test system: Bacillus subtilis ATCC 6633; test: antimicrobial activity, MIC
[21] = test system: Pyricularia oryzae IAM 5016; test: microbe, parasite or virus in culture
[22] = test system: Staphylococcus aureus FDA 209P; test: antimicrobial activity, MIC
Candida albicans Yu-1200 = test: antimicrobial activity, MIC
[23] = test system: Staphylococcus aureus Terajima; test: antimicrobial activity, MIC
[24] = test system: Microsporum audounii IFO 6074; test: antimicrobial activity, MIC
[25] = test system: Debaryomyces kloeckeri IFO 0015; test: antimicrobial activity, MIC
[26] = test system: Aspergillus oryzae IMF 4014; test: antimicrobial activity, MIC
[27] = Saccharomyces ruxii 6507, read-out: MIC
[28] = Trichophyton mentagrophytes IFO 5812
[29] = Fulvia fulva, IAM5006, Cladosporium fulvum IAM 5006, read-out: MIC
[30] = Staphylococcus epidermidis, ATCC12228, Staphylococcus epidermidis ATCC 12228, read-out: MIC
[31] = Candida albicans, NHL4019, Candida albicans NHL 4019, read-out: MIC
[32] = Micrococcus, IFO3333, Micrococcus lysodeixticus IFO 3333, read-out: MIC
[33] = Epidermophyton floccosum, IFO9045, Epidermophyton floccosum IFO 9045, read-out: MIC
[34] = Micrococcus luteus, ATCC9341, Sarcina lutea ATCC 9341, read-out: MIC
[35] = Trichophyton mentagrophytes, QM248, Trichophyton mentagrophytes QM 248, read-out: MIC
[36] = Aspergillus niger, ATCC9642, Aspergillus niger ATCC 9642, read-out: MIC
[37] = Fusarium fujikuroi, IAM8046, Gibberella fujikuroi IAM 8046, read-out: MIC
[38] = Enterococcus faecalis, IFO12964, Streptococcus faecalis IFO 12964, read-out: MIC
[39] = Staphylococcus aureus, read-out: MIC
[40] = Penicillium chrysogenum, ATCC6010, Penicillium chrysogenum ATCC 6010, read-out: MIC
[41] = Saccharomyces cerevisiae, ATCC9763, Saccharomyces cerevisiae ATCC 9763, read-out: MIC
[42] = Helminthosporium, IAM5012, Helminthosporium sesamum IAM 5012, read-out: MIC
[43] = Fusarium verticillioides, IAM5062, Fusarium moniliforme IAM 5062, read-out: MIC
[44] = Paraphyton cookei, IFO8303, Microsporum cookei IFO 8303, read-out: MIC
[45] = Trichophyton tonsurans, IFO5928, Trichophyton tonsurans IFO 5928, read-out: MIC
[46] = Nannizzia gypsea, IFO8231, Microsporum gypseum IFO 8231, read-out: MIC
[47] = Bacillus subtilis, ATCC6633, Bacillus subtilis ATCC 6633, read-out: MIC
[48] = Pyricularia oryzae, IAM5016, Pyricularia oryzae IAM 5016
[49] = Staphylococcus aureus, FDA209P, read-out: MIC
[50] = Microsporum, IFO6074, Microsporum audounii IFO 6074, read-out: MIC
[51] = Aspergillus oryzae, IMF4014, Aspergillus oryzae IMF 4014, read-out: MIC
[52] = Trichophyton rubrum, Trichophyton rubrum NHL J, read-out: MIC
[53] = Trichophyton mentagrophytes, IFO5812, Trichophyton mentagrophytes IFO 5812, read-out: MIC

Measured: MIC

CCCOc1ccccc1C(=CSc1ccccc1)n1ccnc1 (single isomer, unassigned) [Compound 65]
> 100 µg/mL: [1]; Cladosporium fulvum IAM 5006 | [3]; Candida albicans NHL 4019 | [7]; Aspergillus niger ATCC 9642 | [9]; Gibberella fujikuroi IAM 8046 | [13]; Penicillium chrysogenum ATCC 6010 | [16]; Fusarium moniliforme IAM 5062 | Candida albicans Yu-1200 | [25] | [26]; Aspergillus oryzae IMF 4014
3.12 µg/mL: Sarcina lutea ATCC 9341; Sarcina lutea ATCC 9341 | [8]; Trichophyton rubrum NHL J | [12]; [28] | [20]; Bacillus subtilis ATCC 6633
100 µg/mL: [5]; Epidermophyton floccosum IFO 9045 | [15]; Helminthosporium sesamum IAM 5012 | [17]; Microsporum cookei IFO 8303
6.25 µg/mL: [2]; Staphylococcus epidermidis ATCC 12228 | Saccharomyces ruxii 6507; [27] | [11] | [23] | [24]; Microsporum audounii IFO 6074
12.5 µg/mL: [6]; Trichophyton mentagrophytes QM 248 | [10]; Streptococcus faecalis IFO 12964 | [18]; Trichophyton tonsurans IFO 5928 | [19]; Microsporum gypseum IFO 8231 | [22]
25 µg/mL: [14]; Saccharomyces cerevisiae ATCC 9763
1.56 µg/mL: [4]; Micrococcus lysodeixticus IFO 3333 | [21]; Pyricularia oryzae IAM 5016

CCCCCCOc1ccccc1C(=COC)n1ccnc1 (single isomer, unassigned) [Compound 73]
3.12 µg/mL: [4]; [32] | [6]; [35] | [18]; [45] | [19]; [46] | [25]; IFO0015, read-out: MIC
6.25 µg/mL: [1]; [29] | [2]; [30] | [5]; [33] | Sarcina lutea ATCC 9341; [34] | [9]; [37] | [13]; [40] | [15]; [42] | [17]; [44] | [20]; [47] | [23]; [39] | [26]; [51]
1.56 µg/mL: [8]; Trichophyton rubrum | Saccharomyces ruxii 6507; Saccharomyces, 6507, Saccharomyces ruxii 6507 | [12]; [28] | [21]; [48]
50 µg/mL: [3]; [31] | [14]; [41] | Candida albicans Yu-1200; YU1200, read-out: MIC
0.78 µg/mL: [24]; [50]
12.5 µg/mL: [7]; [36] | [10]; [38] | [11]; [39] | [16]; [43] | [22]; [49]

CCCCCCOc1ccccc1C(=CCl)n1ccnc1 (single isomer, unassigned) [Compound 83]
50 µg/mL: [3]; [31]
6.25 µg/mL: [2]; [30] | [5]; [33] | [15]; [42] | [17]; [44] | [20]; [47] | [23]; [39] | [25]; IFO0015, read-out: MIC
1.56 µg/mL: [4]; [32] | [19]; [46]
< 0.2 µg/mL: [6]; [35] | [8]; [52] | Saccharomyces ruxii 6507; [27] | [12]; [53] | [18]; [45] | [21]; [48] | [24]; [50]
12.5 µg/mL: [1]; [29] | [7]; [36] | [10]; [38] | [11]; [39] | [22]; [49] | Candida albicans Yu-1200; YU1200, read-out: MIC | [26]; [51]
3.12 µg/mL: Sarcina lutea ATCC 9341; [34]
25 µg/mL: [9]; [37] | [13]; [40] | [14]; [41] | [16]; [43]

CCOc1ccccc1C(=CSCc1ccccc1)n1ccnc1 [Compound 7]
< 0.2 µg/mL: [8]; [52] | [14]; [41] | [18]; [45] | [21]; [48] | [24]; [50]
0.39 µg/mL: [15]; [42]
> 100 µg/mL: Candida albicans Yu-1200; YU1200, read-out: MIC
0.78 µg/mL: Saccharomyces ruxii 6507; [27] | [12]; [53]
12.5 µg/mL: Sarcina lutea ATCC 9341; [34] | [7]; [36] | [11]; [39] | [17]; [44]
1.56 µg/mL: [19]; [46]
3.12 µg/mL: [6]; [35]
25 µg/mL: [2]; [30] | [20]; [47] | [23]; [39] | [25]; IFO0015, read-out: MIC
100 µg/mL: [1]; [29] | [3]; [31]
50 µg/mL: [10]; [38] | [13]; [40] | [22]; [49]
6.25 µg/mL: [4]; [32] | [5]; [33] | [9]; [37] | [16]; [43] | [26]; [51]

CCCCOc1ccccc1C(=C(Br)Br)n1ccnc1 [Compound 93]
< 0.2 µg/mL: Saccharomyces ruxii 6507; [27] | [12]; [53] | [14]; [41] | [24]; [50]
100 µg/mL: [3]; [31]
1.56 µg/mL: [6]; [35] | [18]; [45]
> 100 µg/mL: [1]; [29] | [7]; [36] | [9]; [37] | [13]; [40] | [16]; [43] | Candida albicans Yu-1200; YU1200, read-out: MIC | [26]; [51]
50 µg/mL: [10]; [38] | [15]; [42]
0.39 µg/mL: [8]; [52] | [21]; [48]
25 µg/mL: [2]; [30] | [5]; [33] | Sarcina lutea ATCC 9341; [34] | [11]; [39] | [22]; [49] | [23]; [39]
6.25 µg/mL: [4]; [32] | [19]; [46] | [25]; IFO0015, read-out: MIC
12.5 µg/mL: [17]; [44] | [20]; [47]
